Test results taken from patent publication US20230272077A1, “PD-1 SIGNAL INHIBITOR COMBINATION THERAPY” (KYOTO UNIVERSITY, priority 2015, published 2023).
Entries after “also recorded” stand apart in the source; their conditions may differ.

Columns and labels:
IFN-γ = assay: Intracellular IFN-γ staining of CD8+ T cells from digested tumor tissues; assay type: in vivo, mouse; conditions: CD8+ T cells in tumors; combined with PD-L1 antibody
Description: FIG. 15. […] Data represent the means±SEM of five mice. *p<0.05, **p<0.01, one-way ANOVA.
The following antibodies recognizing the indicated antigens were used: CD44 (1M7), CD45.2 (104), CD45.1 (A20), CD8 (53-6.7), CD62L (MEL-14), T-bet (4B/O) and IFN-7 (XMG1.2), MHC class I (AF6-88.5), CD155 (Tx56) and VISTA (MIH63) from BioLegend; p-AMPK (EPR5683) from Ancam; p-mTOR (MRRBY), Eomes (Danllmag) and PD-L1 (M1H5) from eBioscience. All flow cytometry experiments were performed on a FACS Canto II (BD Biosciences) and analyzed using FlowJo software (FLOWJO, LLC). For assessment of intracellular phosphoproteins, cells were permeabilized with 0.5% Triton-X and fixed with 1.5% PFA before staining. Determination of mitochondrial mass, membrane potential, mitochondrial superoxide and cellular ROS was performed using MitoTracker Green, Mito-Tracker Deep Red, MitoSOX Red, and CellROX Green reagents, respectively (all from Life Technologies). These dyes were added to cells to a final concentration of 0.125 μM, 0.125 μM, 5.0 μM and 0.625 μM, respectively, and incubated at 37° C. in a 5% CO2 humidified incubator for 30 min.

MethA = assay: Mouse therapy model, MethA-transplanted BALB/c mice (tumor volume); assay type: in vivo; conditions: MethA in BALB/c mice; combined with PD-L1 antibody
Description: MC38 (5×10^5) and MethA (5×10^5) cells were intradermally injected on the right flank. MC38 was inoculated into C57BL/6 mice and MethA was inoculated into BALB/c mice. For monotherapy, mice were intraperitoneally injected with 150 μg of PD-L1 mouse antibody (1-111A) (prepared by the laboratory of the present inventors) 5 days after the tumor inoculation. Therapy with PD-L1 antibody alone was repeated three times every 5 days. For combination therapy, administration of PD-L1 antibody and chemical agents started 7 days after tumor injection. Chemical agents were injected at a regular interval of 2 days and PD-L1 antibody at a regular interval of 5 days (shown in FIG. 3b). Tumors were measured on every alternate day, and tumor volumes were calculated using the formula for typical ellipsoid, π×(length×breadth×height/6).
The following chemical reagents were used at the indicated concentrations for combination therapy. AMPK activator: A769662, 6 mg/kg (Abcam); mTOR activator: MHY1485, 3 μg/kg (Sigma-Aldrich); uncoupler: carbonylcyanide-p-trifluoromethoxyphenylhydrazone (FCCP), 1.2 mg/kg (Abcam); uncoupler: 2,4-Dinitrophenol (DNP), 1.7 mg/kg (Aldrich); SIRT1 activator: resveratrol, 0.5 mg/kg (Abcam); ROS scavenger: Mn (III) tetrakis (4-benzoic acid) porphyrin (MnTBAP), 1.25 mg/kg (Calbiochem); ROS generator: tert-butyl hydroperoxide solution (Luperox TBH70X), 200 μL/kg (Sigma-Aldrich); ATP synthase inhibitor: oligomycin, 250 μg/kg (Sigma-Aldrich); paraquat 2 mg/kg (Nakalai Tesque); oltipraz 1.9 mg/kg (Sigma); bezafibrate 1 mg/kg (ChemCruz).
MethA cells (5×10^5) were inoculated into BALB/c mice. After 7 days, anti-PD-L1 antibody (1-111A, 80 μg) and Foxo1 inhibitor (5-amino-7-(cyclohexylamino)-1-ethyl-6-fluoro-4-oxo-1,4-dihydroquinoline-3-carboxylic acid, Calbiochem) (2 mg/kg) were administered intraperitoneally.
Fibrosarcoma MethA (Cell Resource Center for Biomedical Research) cells (5×10^5) were inoculated into BALB/c mice. After 7 days, anti-PD-L1 antibody (1-111A, 60 μg) and Aminoleban (Otsuka Pharmaceutical, 400 μl/mouse) were administered.

N#CC(C#N)=NNc1ccc(OC(F)(F)F)cc1 [FCCP, carbonyl cyanide p-trifluoromethoxyphenylhydrazone]
IFN-γ production (IFN-γ): increased; also recorded: up-regulated
enhancement of antitumor effect of PD-L1 antibody (tumor volume) (MethA): enhanced the antitumor effect of PD-L1 antibody
